Converted amounts (≈) assume the structure as drawn.
Tests used:
Format in all cases: in vivo
[1] = system: first instar larvae of the sheep blowfly (Lucilia sericata); test: Sheep blowfly larvae on treated cotton wool pads (Examples 53-60); conditions: 1/2 ml. of acetone solution on cotton wool pads, after 24 hours
Method: Cylindrical pads of cotton wool, approximate diameter 1 cm., length 2 cms. were treated with 1/2 ml. of acetone solutions of the following carbamates:
After leaving for 12 hours to dry, the pads were treated with 1 ml. of sheep blood serum and infested with 20 first instar larvae of the sheep blowfly (Lucilia sericata). After 24 hours, the blowflies were examined and found to be all dead; insects similarly infested on untreated pads were unaffected.

[2] = system: second instar larvae of the cabbage white butterfly (Pieris brassicae); test: Cabbage white butterfly larvae on treated cabbage leaf discs (Examples 41-48); conditions: 10, 5, 1, 0.5 and 0.25 pounds per acre, three replications, after 48 hours
From the text: 7 centimeter diameter circular discs of cabbage leaves were painted with 1 milliliter aqueous acetone solutions of each of the following compounds:
in each case at concentrations equivalent to leaf applications of 10, 5, 1, 0.5 and 0.25 pounds per acre (11.2, 5.6, 1.12, 0.56 and 0.28 kg./hectare) of active ingredient. When the deposit on the leaf discs had dried, each leaf disc was placed in a 9 centimeter diameter Petri dish, infested with ten second instar larvae of the cabbage white butterfly (Pieris brassicae) and covered with a glass lid. Three replications were made with each compound at each concentration level.

[3] = system: adult female yellow fever mosquitos (Aedes aegypti); test: Yellow fever mosquitos in coated glass tubes (Examples 61-64); conditions: 3 mg of active ingredient per square foot, after 24 hours
Method: Acetone solutions of the compounds
were applied to the inside walls of glass tubes 9 cm high by 4.5 cm diameter so that after the acetone had evaporated a coating equivalent to 3 mg of active ingredient per square foot remained. Batches of adult female yellow fever mosquitos (Aedes aegypti) were then caged in the tubes.

[4] = system: adult female houseflies (Musca domestica); test: Housefly mortality on treated filter papers (Examples 32-40); conditions: 100 milligrams per square foot, after 24 hours
From the text: 9 centimeter diameter filter papers treated with aqueous acetone solutions of each of the compounds
at rates equivalent to 100 milligrams per square foot (100 mgm./0.09 m^2.) of active ingredient were placed in 9 centimeter diameter Petri dishes. Batches of adult female houseflies (Musca domestica) lightly anaesthetised with carbon dioxide were then introduced into the dishes and a glass lid placed over each.

[5] = system: first stage larvae of the cattle tick, Boophilus microplus; test: Cattle tick larvae in treated filter paper packets (Example 65); conditions: 30 parts per million, 25° C, 24 hours
Method: Filter papers, diameter 9 cm., were treated with 1 ml. of acetone solutions containing 30 parts per million of 2,2-dimethyl-1,3-benzodioxol-4-yl N-methylcarbamate or 7-chloro-2,2-dimethyl-1,3-benzodioxol-4-yl N-methylcarbamate. When they had dried, they were folded into quadrant shaped packets, infested with 20 first stage larvae of the cattle tick, Boophilus microplus, closed with a metal clip and kept at 25° C for 24 hours.

[6] = system: German cockroaches (Blattella germanica); test: Persistency against German cockroaches on treated glass plates (Example 74); conditions: 100 mg/ft^2 (1.065 g/m^2), 2nd stage nymphs, 7 day intervals until less than 50% mortality
Method: Persistency was measured against German cockroaches (Blattella germanica), or the order Orthoptera, by treating glass plates with acetone solutions of the compunds listed below to produce a deposit equivalent to 100 mg/ft^2 (1.065 g/m^2), and caging 2nd stage nymph cockroaches on these surfaces for 48 hours at 7 day intervals until less than 50% mortality was recorded.

[7] = system: 2nd stage nymph of the German cockroach (Blattella germanica); test: LC50 against German cockroach nymphs in treated glass tubes (Example 69)
Method: Compounds 2 and 4 and also 2,2-dimethyl-1,3- benzodioxol-4-yl N-methylcarbamate(compound 5) and 2,2-dimethyl-1,3-benzodioxol-4-yl N-acetyl-N-methylcarbamate (compound 6) were tested for activity against the 2nd stage nymph of the German cockroach (Blattella germanica), of the order Orthoptera, by treating the walls of glass tubes (9.0 cm high × 4.5 cm diameter) with acetone solutions of the compounds and after the acetone had evaporated caging the insects in the tubes for 48 hours. The highest dosage rate employed was 50 mg/ft^2 (532 mg/m^2).
(§1) If complete kill was obtained at the highest dosage rate, the test was repeated using a logarithmically reducing dose regime until less than 50% mortality was recorded. The LC50 was then calculated from the line of best fit from the data plotted on log/provit analysis paper.
The LC50 values are abbreviated on a 0-6 scale where

[8] = system: adult apterous vetch aphids (Megoura viciae); test: Vetch aphids on sprayed field beans (Examples 49 and 50); conditions: 100 parts per million, 50 gallons per acre, 24 hours
From the text: Aqueous suspensions containing 100 parts per million of 2,2-dimethyl-1,3-benzodioxol-4-yl N-methylcarbamate and 2,2-dimethyl-1,3-benzodioxol-4-yl N-acetyl-N-methylcarbamate were sprayed at a rate equivalent to 50 gallons per acre (585 liters per hectare) on young field beans (Vicia faba) infested with adult apterous vetch aphids (Megoura viciae). After treatment the plants were enclosed in glass cages with gauze tops for ventilation.

[9] = system: larvae of the sheep maggot fly (Lucilia sericata); test: LC50 against sheep maggot fly larvae on dental rolls (Example 71)
Method: as §1
(§2) Similarly LC50 values were obtained against various pests as described in Examples 70-73 where, however, the LC50 values are abbreviated on a 0-6 scale where
Similarly, LC50 values were obtained for each of Compounds 1, 2, 3, 4, 5 and 6 against larvae of the sheep maggot fly (Lucilia sericata), of the order Diptera. The tests were carried out by placing newly hatched larvae on dental rolls contained in glass vials and soaked with 1 ml of blood serum containing the compound. The mortality was assessed after 24 hours. The highest dosage rate employed was 1000 ppm.

[10] = system: adult red spider mites (Tetranychus telarius); test: LC50 against adult red spider mites on sprayed French beans (Example 73); conditions: 48 h, read-out: LC50 value
Method: as §1, §2
Similarly, LC50 values were obtained for each of Compounds 1, 2, 4, 5 and 6 against adult red spider mites (Tetranychus telarius), of the order Acarina. The tests were carried out by spraying infected French beans with a 50% acetone water solution of the compound, containing 500 ppm of Lissapol NX as a wetting agent, and recording the mortality after 48 hours. The highest dosage rate employed was 1000 ppm which is equivalent to 10 lb/acre (11.20 kg/ha).

[11] = system: yellow fever mosquito (Aedes aegypti); test: Persistency against yellow fever mosquito on treated glass plates (Example 75); conditions: 100 mg/ft^2 (1.065 g/m^2), adult female mosquitos, 7 day intervals until less than 50% mortality
Method: Persistency was measured against yellow fever mosquito (Aedes aegypti), of the order Diptera, by treating glass plates with acetone solutions of the compounds listed below to produce a deposit equivalent to 100 mg/ft^2 (1.065 g/m^2), and caging adult female mosquitos on these surfaces for 24 hours at 7 day intervals until less than 50% mortality was recorded.

[12] = system: adult female houseflies (Musca domestica); test: LC50 against adult female houseflies on filter papers (Example 70)
Method: as §1, §2
LC50 values were obtained for each of Compounds 1, 2, 3, 4, 5 and 6 against adult female houseflies (Musca domestica), of the order Diptera. The tests were carried out by adding acetone solutions of the compounds to 9 cm diameter filter papers in the base of 9 cm diameter crystallising dishes, placing the houseflies in the dishes after the acetone had evaporated, closing the dishes with Petri dish lids and counting the mortality after 24 hours. The highest dosage rate employed was 1000 mg/ft^2 (10.65 g/m^2).

CCC1(C)Oc2cccc(OC(=O)NC)c2O1 (centres unmarked) [2-ethyl-2-methyl-1,3-benzodioxol-4-yl N-methylcarbamate]
mortality of sheep blowfly larvae [1]: all dead | mortality of cabbage white butterfly larvae [2]: all found to be dead

CC(=O)N(C)C(=O)Oc1cccc2c1OC(C)(C(C)(C)C)O2 (centres unmarked) [2-methyl-2-t-butyl-1,3-benzodioxol-4-yl N-acetyl-N-methylcarbamate]
mortality of yellow fever mosquitos [3]: all found to be dead

CC(=O)N(C)C(=O)Oc1cccc2c1OC(C)O2 (centres unmarked) [2-methyl-1,3-benzodioxol-4-yl N-acetyl-N-methylcarbamate]
mortality of houseflies [4]: all found to be dead

CCC1(CC)Oc2cccc(OC(=O)N(C)C(C)=O)c2O1 [2,2-diethyl-1,3-benzodioxol-4-yl N-acetyl-N-methylcarbamate]
mortality of yellow fever mosquitos [3]: all found to be dead

CNC(=O)Oc1ccc(Cl)c2c1OC(C)(C)O2 [7-chloro-2,2-dimethyl-1,3-benzodioxol-4-yl N-methylcarbamate]
mortality of cattle tick larvae [5]: all the ticks in the treated filter papers were dead

CC(=O)N(C)C(=O)Oc1cccc2c1OC(C)(C)O2 [Compound 6, 2,2-dimethyl-1,3-benzodioxol-4-yl N-acetyl-N-methylcarbamate]
mortality of houseflies [4]: all found to be dead | Persistency [6]: 8 to 14 days | LC50 value ([7]; 2nd stage nymph German cockroach, 48 hours, 0-6 scale): 1 (15-50 mg/ft^2 (160-532 mg/m^2)) | activity against cockroaches (in words) ([7]; cockroaches): low activity against cockroaches | kill of vetch aphids [8]: complete kill of the aphids in 24 hours | LC50 ([9]; Lucilia sericata, 24 h, read-out: LC50 value): 30 to 99 mg/L (≈ 113 to 373 µM) | activity against sheep maggot fly (in words) ([9]; compared with compound 5): worse | LC50 [10]: 100 to 299 mg/L (≈ 377 to 1130 µM) | Persistency [11]: 15 to 21 days | LC50 value ([12]; adult female houseflies, 24 hours, 0-6 scale (mg/ft^2)): 3 (30-99 mg/ft^2 (0.32 - 1.06 g/m^2)) | activity against houseflies (in words) ([12]; compared with compound 5): worse | mortality of cabbage white butterfly larvae [2]: all found to be dead

CC(=O)N(C)C(=O)Oc1cc(C)cc2c1OC(C)(C)O2 [2,2,6-trimethyl-1,3-benzodioxol-4-yl N-acetyl-N-methylcarbamate]
mortality of houseflies [4]: all found to be dead

C=CCN(C(C)=O)C(=O)Oc1cccc2c1OC(C)(C)O2 [2,2-dimethyl-1,3-benzodioxol-4-yl N-acetyl-N-allylcarbamate]
mortality of houseflies [4]: all found to be dead

CCC1(CC)Oc2cccc(OC(=O)NC)c2O1 [2,2-diethyl-1,3-benzodioxol-4-yl N-methylcarbamate]
mortality of sheep blowfly larvae [1]: all dead

CNC(=O)Oc1cc(C)cc2c1OC(C)(C)O2 [2,2,6-trimethyl-1,3-benzodioxol-4-yl N-methylcarbamate]
mortality of sheep blowfly larvae [1]: all dead

CC(=O)N(C)C(=O)Oc1cccc2c1OC1(CCCCC1)O2 [2,2-pentamethylene-1,3-benzodioxol-4-yl N-acetyl-N-methylcarbamate]
mortality of yellow fever mosquitos [3]: all found to be dead

CNC(=O)Oc1cccc2c1OC1(CCCC1)O2 [2,2-tetramethylene-1,3-benzodioxol-4-yl N-methylcarbamate]
mortality of cabbage white butterfly larvae [2]: all found to be dead

CCc1ccc(OC(=O)NC)c2c1OC(C)(C)O2 [7-ethyl-2,2-dimethyl-1,3-benzodioxol-4-yl N-methylcarbamate]
mortality of sheep blowfly larvae [1]: all dead

CNC(=O)Oc1cccc2c1OC(C)(C(C)(C)C)O2 (centres unmarked) [2-tert-butyl-2-methyl-1,3-benzodioxol-4-yl N-methylcarbamate]
mortality of sheep blowfly larvae [1]: all dead

CCCC(=O)N(C)C(=O)Oc1cccc2c1OCO2 [1,3-benzodioxol-4-yl N-butyryl-N-methylcarbamate]
mortality of houseflies [4]: all found to be dead

CC(=O)N(C)C(=O)Oc1cccc2c1OC1(CCCC1)O2 [2,2-tetramethylene-1,3-benzodioxol-4-yl N-acetyl-N-methylcarbamate]
mortality of yellow fever mosquitos [3]: all found to be dead

CNC(=O)Oc1cccc2c1OCO2 [1,3-benzodioxol-4-yl N-methylcarbamate]
mortality of houseflies [4]: all found to be dead

CNC(=O)Oc1cccc2c1OC(C)O2 (centres unmarked) [2-methyl-1,3-benzodioxol-4-yl N-methylcarbamate]
mortality of sheep blowfly larvae [1]: all dead

C=CCNC(=O)Oc1cccc2c1OC(C)(C)O2 [2,2-dimethyl-1,3-benzodioxol-4-yl N-allylcarbamate]
mortality of cabbage white butterfly larvae [2]: all found to be dead

CNC(=O)Oc1ccc(C)c2c1OC(C)(C)O2 [2,2,7-trimethyl-1,3-benzodioxol-4-yl N-methylcarbamate]
mortality of sheep blowfly larvae [1]: all dead | mortality of cabbage white butterfly larvae [2]: all found to be dead

C#CCN(C(C)=O)C(=O)Oc1cccc2c1OC(C)(C)O2 [2,2-dimethyl-1,3-benzodioxol-4-yl N-acetyl-N-propargylcarbamate]
mortality of cabbage white butterfly larvae [2]: all found to be dead

C#CCNC(=O)Oc1cccc2c1OC(C)(C)O2 [2,2-dimethyl-1,3-benzodioxol-4-yl N-propargylcarbamate]
mortality of cabbage white butterfly larvae [2]: all found to be dead

Source: patent US4056625A, “Pesticidal compositions containing benzodioxole derivatives and methods of combating pests” (priority 1972, dated 1977)
